What was measured:
C57BL/6J mice = conditions: IP injection
Protocol: After 24 hours mice were perfused transcardially with 0.9% saline followed by 4% paraformaldehyde. Brains, arteries, heart, liver kidneys were removed, post-fixed and […] sections were cut on a vibratome (Leica Microsystems, Germany) The sections were mounted on slides, dried at 4° C., cover slipped using vectashield mounting medium and examined using a Zeiss laser scanning confocal microscope (LSM 510).

SH-SY5Y cells = conditions: 500 μM H2O2 24 hours before, 24 hours exposure
Protocol: Cytoprotective effect tests were performed on SH-SY5Y cells that had previously been exposed to hydrogen peroxide for 24 hours.

Row | SMILES | blood brain barrier passage (labelling in the brain tissue) (C57BL/6J mice) | highest number of fluorescent peaks, brain tissue (C57BL/6J mice; 100 μM solution, 24 hours) | highest number of fluorescent peaks, heart tissue (C57BL/6J mice; 100 μM solution, 24 hours) | highest number of fluorescent peaks, liver tissue (C57BL/6J mice; 100 μM solution, 24 hours) | highest number of fluorescent peaks, lung tissue (C57BL/6J mice; 100 μM solution, 24 hours) | uptake into hepatocytes in liver tissue (C57BL/6J mice; higher magnifications) | cytoprotective potency, comparison of the two nitrates (SH-SY5Y cells) | effect on hydrogen peroxide's cytotoxicity (SH-SY5Y cells; n=80)
1 | O=[N+]([O-])[O-].O=[N+]([O-])[O-].O=[N+]([O-])[O-].[Eu+3] [europium nitrate] | cross the blood brain barrier | ≥ 20 peaks per 100 μm^2 area | ≤ 1 peaks in a 100 μm^2 area | < 10 peaks in a 100 μm^2 area | ≤ 1 peaks in a 100 μm^2 area | had entered the hepatocytes |  | 
2 | O=[N+]([O-])[O-].O=[N+]([O-])[O-].O=[N+]([O-])[O-].[Ce+3] [cerium nitrate] |  |  |  |  |  |  | more potent antioxidant-based cytoprotective agent compared to europium nitrate | significantly inhibiting hydrogen peroxide's cytotoxicity
